Legend:
db/db mice [1] = assay: HbA1c in treated db/db mice; format: in vivo, mouse
db/db mice [2] = assay: Plasma N-glycan profiling (MALDI-TOF MS) in insulin detemir- vs vehicle-treated db/db mice; format: in vivo, mouse
Procedure: A 10 μl aliquot of each plasma sample was spiked with internal standard (700 pmol) and analyzed for N-linked glycans using Ezose Sciences' GLYCANMAP methodology. The samples were denatured and then digested with trypsin, followed by heat-inactivation. The mixture was then treated with PNGase F. After enzymatic release of N-glycans, aliquots were subjected to solid-phase processing using BLOTGLYCO beads. Following capture on the beads, the sialic acid residues were methyl esterified. The glycans were simultaneously released from the beads and labeled, and then aliquots of the recovered materials were spotted onto a MALDI target plate. Steps from initial aliquoting to spotting on the MALDI plate were performed using the fully automated SWEETBLOT technology. MALDI-TOF MS analysis was performed on an ultraflex III mass spectrometer (Bruker Daltonics) in the positive-ion, reflector mode. Each sample from the BLOTGLYCO bead processing step was spotted in quadruplicate, and spectra were obtained in an automated manner using the AutoXecute feature in flexControl software (Bruker Daltonics). Proposed glycan structures were assigned based on molecular weight. These methods have been described previously by Nishimura, Furukawa and Miura (Nishimura et al., Angew Chem. Int. Ed. Engl., 44: 91-96 (2004); Furukawa et al., Anal. Chem., 80: 1094-1101 (2008); Miura et al., Chem.-A Eur. J, 13: 4797-4804 (2007)). Alternatively, standard fluorescent HPLC or capillary electrophoresis methods with 2-AA, 2-AB, or APTS labeling can be used to monitor the glycan levels and changes in glycan patterns.
A further study was undertaken to evaluate the performance of candidate biomarkers discovered using rosiglitazone in mice treated with a diabetes drug having a different mechanism of action. The candidate biomarkers that were identified in Example 1 were evaluated in db/db mice treated with insulin detemir and vehicle.
Plasma samples were analyzed from ten db/db mice at baseline (0 days) and from 20 db/db mice (ten vehicle and ten insulin detemir-treated) at 7, 14, and 21 days. Sample preparation and analysis followed the protocol described in Example 1.
Concentrations of individual glycans in insulin detemir- and vehicle-treated db/db mice were compared at each time-point using the Student's t-test. N-glycans which yielded p-values <0.05 in this analysis were considered significant. Time-dependence was also evaluated for each of the candidate biomarkers by comparing each time-point to baseline.

[3] = db/db mice treated with insulin detemir vs vehicle
[4] = plasma, db/db mice vs vehicle, 7, 14, 21 days

Compound	Time until HbA1c difference reached p<0.001 significance (db/db mice [1]; first rosiglitazone study, db/db mice vs vehicle)	Changes in HbA1c (db/db mice [1]; insulin-treated db/db mice, compared with rosiglitazone)	Changes in Glycan 540020 (db/db mice [2]; [3])	Changes in O-acetylated N-glycans (db/db mice [2]; [3])	Changes in fucosylated N-glycans (db/db mice [2]; [3])	High mannose glycans (520000, 620000, 720000, 820000) with insulin detemir treatment (db/db mice [2]; db/db mice vs vehicle, significant at Day 7, 14 and 21, lower in magnitude than with rosiglitazone)	Hybrid glycans (430010, 530010, 630010) vs vehicle-treated controls (db/db mice [2]; db/db mice, as early as Day 7)	Direction of Change with Insulin Detemir: High Mannose glycan 520000 (db/db mice [2]; [4])	Direction of Change with Insulin Detemir: High Mannose glycan 620000 (db/db mice [2]; [4])	Direction of Change with Insulin Detemir: High Mannose glycan 720000 (db/db mice [2]; [4])	Direction of Change with Insulin Detemir: High Mannose glycan 820000 (db/db mice [2]; [4])	Direction of Change with Insulin Detemir: Hybrid glycan 430010 (db/db mice [2]; [4])	Direction of Change with Insulin Detemir: Hybrid glycan 530010 (db/db mice [2]; [4])	Direction of Change with Insulin Detemir: Hybrid glycan 630010 (db/db mice [2]; [4])
CN(CCOc1ccc(CC2SC(=O)NC2=O)cc1)c1ccccn1 (centres unmarked) [Rosiglitazone]	21 days	–	–	–	–	–	–	–	–	–	–	–	–	–
insulin detemir	–	more subtle changes	no significant changes	no significant changes	no significant changes	lower levels	significant decreases	Decreased	Decreased	Decreased	Decreased	Decreased	Decreased	Decreased
